From publication PMC3546861, “HLA-A*0201-restricted CD8^+ T-cell epitopes identified in dengue viruses” (Virology Journal, 2012) come the findings set out here.

Experiment [1] concerns HLA-A*0201 transgenic mice. Kind of experiment: ICS assay for CD8+ IFN-γ+ T cells in splenocytes of peptide-immunized mice. The experiment is classed as in vivo, mouse. The following applies: for ICS CD8^+IFN-γ^+T cells, proportion in CD8^+ T cells: mice immunized s.c. with peptide 50 μg/mouse in Freund's adjuvant, 5 weekly doses, splenocytes stimulated with cognate peptide 10 μg/ml, 6 h, brefeldin A, CD3+CD8+ gate, mean ± SD, 4 mice/group, SD; for Cross-reactivity of peptide-specific CD8^+ T cells towards heterologous variant peptides: splenocytes of peptide-immunized mice stimulated with heterologous peptide 10 μg/ml, ELISPOT and ICS (Figures 4 and 7), result in words. The method, then: (§1) HLA-A*0201 transgenic mice were subdivided into 12 groups (4 mice/group). Mice were inoculated subcutaneously with high-affinity peptide (50 μg/mouse) emulsified in Freund’s complete adjuvant. One week later, mice were immunized with the same peptide emulsified in Freund’s incomplete adjuvant. Mice were boosted three more times at weekly intervals. Mock-immunized (adjuvant alone) HLA-A*0201 transgenic mice and peptide-immunized C57BL/6 mice served as controls. One week after the final immunization, all mice were sacrificed and splenocytes extracted. ELISPOT and ICS assays were conducted to detect the frequencies of peptide-specific IFN-γ-producing cells. All animal were performed following the Institutional Animal Care and Use Committee-approved protocols.
Splenocytes were cultured with either cognate peptide (10 μg/ml) or heterologous peptide (10 μg/ml) in a 1.5 ml microcentrifuge tube for 6 h at 37°C/5% CO2. […] During the last 5 h, brefeldin A (10 μg/ml) was added to each tube. After a 6 h incubation, cells were washed and then stained with APC-conjugated anti-mouse CD3 and FITC-conjugated anti-mouse CD8 antibodies (eBioscience company, USA) for 40 min at 4°C. Cells were then washed and fixed with 4% paraformaldehyde for 20 min at 4°C, permeabilized using 0.5% saponin for 10 min at 4 °C, and stained with PE-conjugated anti-mouse IFN-γ antibody (eBioscience company, USA) for 40 min at 4°C. A FACS Calibur flow cytometer (BD Bioscience, USA) was used to analyze labeled cells. CD3^+ CD8^+ T cells were gated and the proportion of IFN-γ-producing CD8^+ T cells (CD8^+ IFN-γ^+ T cells) as a subset of all CD8^+ T cells were determined.

The target of experiment [2] is HLA-A*0201 molecule of T2 cells (Homo sapiens, UniProt P04439, D140Y/D185E/D98H/E176V/E277Q/G131W/G231S/I119V/I121R/I166T/I218V/L300P/L318F/N151K/N90K/P208A/P217A/Q86G/Q94H/R138H/R169H/T345S). Description: MHC-peptide complex stabilization assay on T2 cells. On the set-up: key: FI = (MFI sample − MFI background) / MFI background. The following applies: serum-free RPMI 1640, 1 h 37°C, 12 h 26°C, 3 h 37°C, FITC anti-HLA-A*0201, flow cytometry, FI = (MFI sample - MFI background)/MFI background. The experiment is classed as binding. The method, then:
Figure 1 The affinity of candidate epitopes for HLA-A*0201 molecules. T2 cells were incubated in RPMI 1640 medium lacking peptides (red) or containing low peptide (1 μg/ml) (green) or intermediate peptide (10 μg/ml) (purple) or high peptide (100 μg/ml) (blue) for 15 h and stained with FITC-conjugated anti-HLA-A*0201 antibody. Then, mean fluorescence intensity (MFI) was measured using flow cytometry.
The ability of peptides to stabilize MHC molecules on the surface of T2 cells was measured as described previously. T2 cells (2 × 10^5 cells/0.5 ml) were incubated in serum-free RPMI 1640 medium in the presence of different concentrations of peptide (1, 10, 100 μg/ml) for 1 h at 37°C/5% CO2 incubator. Cells were then incubated at 26°C for 12 h, and then returned to 37°C for a 3 h incubation. Finally, T2 cells were stained with FITC-conjugated anti-HLA-A*0201 antibody (BD Pharmingen, USA) for 40 min at 4°C. T2 cells incubated in serum-free RPMI 1640 medium without peptides served as a negative control (background). Mean fluorescence intensity (MFI) of T2 cells was recorded with a FACS Calibur flow cytometer (BD bioscience, USA), and results expressed as fluorescence index (FI). The following formula was used to calculate the FI.
(1) FI=MFI sample-MFI background/MFI background
For orientation: In flow cytometry, cells or beads pass a laser one at a time.

Experiment [3] concerns HLA-A*0201 transgenic mice. Description: IFN-γ ELISPOT assay on splenocytes of peptide-immunized mice. Type of experiment: in vivo. The following applies: mice immunized s.c. with peptide 50 μg/mouse in Freund's adjuvant, 5 weekly doses, splenocytes stimulated with cognate peptide 10 μg/ml, 24 h, background subtracted, mean ± SD, 4 mice/group. The method, then: as §1
Splenocytes were resuspended to a final concentration of 1 × 10^6 cells/ml in RPMI 1640 medium supplemented with 10% fetal bovine serum (FBS). ELISPOT assays were performed in pre-coated 96-well plates (U-CyTech Company, Netherlands). Splenocytes were seeded at 1 × 10^5 cells/well and exposed to either cognate or heterologous peptide at a final concentration of 10 μg/ml. Negative control wells contained splenocytes but no peptide. Positive control wells included cells plus phytohemagglutinin (PHA) at a final concentration of 10 μg/ml. All tests were carried out in duplicate wells, with plates incubated for 24 h at 37°C/5% CO2. Plates were washed and then incubated with biotinylated anti-mouse IFN-γ for 1 h at 37°C. After washing, plates were labeled with streptavidin-horseradish peroxidase, and developed using fresh ACE solution as a substrate. IFN-γ spots were counted using an ELISPOT reader (Beijing SageCreation Science Co. Ltd, Beijing, China). Peptide-specific T-cell frequency was expressed as SFCs/1 × 10^5 splenocytes. Background spots (negative control wells) were subtracted from test wells. A positive response to a peptide was defined as having > 5 SFCs/1 × 10^5 splenocytes after subtraction of the background.

“Also recorded” adds a separate entry of the source.

On to “AILTVVAAT [D2V-NS4a140-148, D2V variant peptide of D1V-NS4a140-148, nonapeptide …]”, for which the “ICS CD8^+IFN-γ^+T cells, proportion in CD8^+ T cells” value (“ICS CD8^+IFN-γ^+T cells, proportion” below) in experiment [1] is given as 0.12 ± 0.05%. The “FI (fluorescence index)” value was 0.1 in experiment [2] (peptide 1 μg (1 μg/ml)), 0.2 in experiment [2] (peptide 10 μg (10 μg/ml)) and 1.2 in experiment [2] (peptide 100 μg (100 μg/ml)). Further, in experiment [3], the “ELISPOT IFN-γ spot-forming cells” value is listed as 10 ± 3 SFCs/1×10^5cells.

Take AMVLSIVSL [D1V-NS2a169-177]: the figures for the “FI (fluorescence index)” value in experiment [2] (peptide 1 μg (1 μg/ml)), in experiment [2] (peptide 10 μg (10 μg/ml)) and in experiment [2] (peptide 100 μg (100 μg/ml)) were 0.03, 0.05 and 0.04, respectively.

As to “GILTLAAIV [D3V-NS4a140-148, D3V variant peptide of D1V-NS4a140-148, nonapeptide …]”, the “ICS CD8^+IFN-γ^+T cells, proportion” value in experiment [1] was determined as 0.37 ± 0.08%. Also, the “FI (fluorescence index)” value was determined as 0.1 in experiment [2] (peptide 1 μg (1 μg/ml)) and 0.15 in experiment [2] (peptide 10 μg (10 μg/ml)). Also, the “ELISPOT IFN-γ spot-forming cells” value in experiment [3] came to 37 ± 6 SFCs/1×10^5cells.

In the case of “LLMRTSWAL [D3V-NS4b182-190, D3V variant peptide of D1V-NS4b183-191, nonapeptide …]”, in experiment [1], the “ICS CD8^+IFN-γ^+T cells, proportion” value stood at 0.27 ± 0.07%. For the same sequence, in experiment [1], the “Cross-reactivity of peptide-specific CD8^+ T cells towards heterologous variant peptides” value was “cross-reacted with each other”. Besides, the “FI (fluorescence index)” value in experiment [2] (peptide 1 μg (1 μg/ml)) is recorded as 0.22; in experiment [2] (peptide 10 μg (10 μg/ml)), 0.65; in experiment [2] (peptide 100 μg (100 μg/ml)), 3.6; in experiment [2] (peptide 100 μg (100 μg/ml), listed as D3V-NS4b182–190), greater than 1. For the same sequence, in experiment [3], the “ELISPOT IFN-γ spot-forming cells” value came out at 24 ± 5 SFCs/1×10^5cells.

“LLMRTTWAF [D4V-NS4b179-187, D4V variant peptide of D1V-NS4b183-191, nonapeptide …]”: the “ICS CD8^+IFN-γ^+T cells, proportion” value in experiment [1] is listed as 0.16 ± 0.06%. Moreover, the “Cross-reactivity of peptide-specific CD8^+ T cells towards heterologous variant peptides” value in experiment [1] is “cross-reacted with each other”. The “FI (fluorescence index)” value in experiment [2] (peptide 1 μg (1 μg/ml)) is 0.2; in experiment [2] (peptide 10 μg (10 μg/ml)) it was 0.59; in experiment [2] (peptide 100 μg (100 μg/ml)) it was 4.4; in experiment [2] (peptide 100 μg (100 μg/ml), listed as D4V-NS4b179–187), greater than 4. Besides, in experiment [3], the “ELISPOT IFN-γ spot-forming cells” value is 22±4 SFCs/1×10^5cells.

Regarding LLMRTTWAL [D1V-NS4b183-191], in experiment [1], the “ICS CD8^+IFN-γ^+T cells, proportion” value is on record as 0.44 ± 0.09%. In addition, the “Cross-reactivity of peptide-specific CD8^+ T cells towards heterologous variant peptides” value in experiment [1] is reported as “marked cross-reactivity; also recorded: cross-reacted with each other”. For the same sequence, the “FI (fluorescence index)” value was 0.29 in experiment [2] (peptide 1 μg (1 μg/ml)); 0.4 in experiment [2] (peptide 10 μg (10 μg/ml)); 1.95 in experiment [2] (peptide 100 μg (100 μg/ml)); “exceeds 1” in experiment [2] (peptide 100 μg (100 μg/ml), listed as D1V-NS4b183–191). Moreover, the “ELISPOT IFN-γ spot-forming cells” value in experiment [3] came out at 42 ± 7 SFCs/1×10^5cells.

Consider “LMMRTTWAL [D2V-NS4b182-190, D2V variant peptide of D1V-NS4b183-191, nonapeptide …]”, for which the “ICS CD8^+IFN-γ^+T cells, proportion” value in experiment [1] is 0.37 ± 0.09%. In addition, the “Cross-reactivity of peptide-specific CD8^+ T cells towards heterologous variant peptides” value in experiment [1] is recorded as “cross-reacted with each other”. For the same sequence, the “FI (fluorescence index)” value in experiment [2] (peptide 1 μg (1 μg/ml)) was 0.58; in experiment [2] (peptide 10 μg (10 μg/ml)), 3.42; in experiment [2] (peptide 100 μg (100 μg/ml)) it was 4.8; in experiment [2] (peptide 100 μg (100 μg/ml), listed as D2V-NS4b182–190), greater than 4. Also, the “ELISPOT IFN-γ spot-forming cells” value in experiment [3] turned out to be 37 ± 5 SFCs/1×10^5cells.

Regarding LVMAFMAFL [D1V-C46-54], the “FI (fluorescence index)” value in experiment [2] (peptide 1 μg (1 μg/ml)) is reported as 0.01; in experiment [2] (peptide 10 μg (10 μg/ml)), 0.02; in experiment [2] (peptide 100 μg (100 μg/ml)), 0.02.

Turning to MLLALIAVL [D1V-NS4a56-64], the figures for the “FI (fluorescence index)” value in experiment [2] (peptide 1 μg (1 μg/ml)), in experiment [2] (peptide 10 μg (10 μg/ml)) and in experiment [2] (peptide 100 μg (100 μg/ml)) were 0.05, 0.05 and 0.08, respectively.

Take “QLAVTIMAI [D2V-NS2a144-152, D2V variant peptide of D1V-NS2a144-152, nonapeptide …]”: the “ICS CD8^+IFN-γ^+T cells, proportion” value in experiment [1] worked out at 0.21 ± 0.05%. Further, the “FI (fluorescence index)” value in experiment [2] (peptide 1 μg (1 μg/ml)) is 0.24; in experiment [2] (peptide 10 μg (10 μg/ml)), 0.39; in experiment [2] (peptide 100 μg (100 μg/ml)), 3.85; in experiment [2] (peptide 100 μg (100 μg/ml), listed as D2V-NS2a144–152), greater than 1. Besides, in experiment [3], the “ELISPOT IFN-γ spot-forming cells” value amounted to 21±3 SFCs/1×10^5cells.

Take QLWAALLSL [D1V-NS2a144-152]: in experiment [1], the “ICS CD8^+IFN-γ^+T cells, proportion” value is 0.41 ± 0.07%. Also, the “FI (fluorescence index)” value in experiment [2] (peptide 1 μg (1 μg/ml)) is 0.05; in experiment [2] (peptide 10 μg (10 μg/ml)), 0.22; in experiment [2] (peptide 100 μg (100 μg/ml)), 1.12; in experiment [2] (peptide 100 μg (100 μg/ml), listed as D1V-NS2a144–152), “exceeds 1”. In addition, in experiment [3], the “ELISPOT IFN-γ spot-forming cells” value is on record as 36 ± 6 SFCs/1×10^5cells.
